Experimental data taken from patent US6894074B2, “Synergistic insecticidal mixtures” (Bayer Aktiengesellschaft, priority 1999, dated 2005).

Tests used:
Type in all cases: in vivo
Aphis gossypii = experiment: Field spray test against Aphis gossypii on courgettes, efficacy by the method of Abbott; conditions: 4 spray applications
Protocol: The spray liquor (1000 l of water/ha) comprising the active compound(s) was applied using a knapsack sprayer operated with compressed air. 4 spray applications were carried out at intervals of 9-13 days. The plot size was 12 m^2. The effect on the aphids was determined 7, 16 and 29 days after the last application (start of the infestation after the 2nd treatment) by counting the animals which were still alive/leaf (10 leaves/plot) and calculating the efficacy by the method of Abbott.

white fly Bemisia tabaci = experiment: Bemisia test: infested cotton plants dipped into preparation of active compound, kill in %; conditions: 4 ppm active compound
Excerpt: The expected activity for a given combinatin of two active compounds can be calculated as follows (according to S. R. Colby, Weeds 15 (1967), 20-22):
If the actual activity exceeds the calculated value, then the activity of the combination is superadditive, i.e. a synergistic effect exists. In this case, the efficacy which was actually observed must be greater than the value for the expected efficacy (E) calculated from the abovementioned formula.
To produce a suitable preparation of active compound, 1 part by weight of active compound is mixed with the stated amounts of solvent and emulsifier, and the concentrate is diluted with water to the desired concentrations.
Cotton plants (Gossypium hirsutum) which are infested by eggs, larvae and puparia of the white fly Bemisia tabaci are dipped into a preparation of active compound of the desired concentration.
After the desired period of time, the kill in % is determined. 100% means that all animals have been killed; 0% means that none of the animals have been killed.

Bemisia tabaci = experiment: Field spray test against Bemisia tabaci on cotton, efficacy by the method of Abbott; conditions: larvae on cotton
Protocol: The spray liquor (1000 l of water/ha) comprising the active compound(s) was applied using a knapsack sprayer operated by pressurized air. The plot size was 19 m^2. The effect was evaluated 7, 10 and 14 days after the application by determining the number of larvae still alive on the leaf undersurface (10 leaves/plot) and calculating the efficacy by the method of Abbott.

O=[N+]([O-])/N=C1\NCCN1Cc1ccc(Cl)nc1 [Ex. (IIa)]
Efficacy % Abbott (Aphis gossypii; 0.015 % active compound, 7 days after the last treatment): 100% | Efficacy % Abbott (Aphis gossypii; 0.015 % active compound, 16 days after the last treatment): 89% | Efficacy % Abbott (Aphis gossypii; 0.015 % active compound, 29 days after the last treatment): 33% | Kill in % after 10 d (white fly Bemisia tabaci): 0%

Cc1cc(C)c(C2=C(OC(=O)CC(C)(C)C)C3(CCCC3)OC2=O)c(C)c1 [Ex. (Ia)]
Efficacy % Abbott (Aphis gossypii; 0.0144 % active compound, 7 days after the last treatment): 0% | Efficacy % Abbott (Aphis gossypii; 0.0144 % active compound, 16 days after the last treatment): 0% | Efficacy % Abbott (Aphis gossypii; 0.0144 % active compound, 29 days after the last treatment): 0% | Efficacy % Abbott (Bemisia tabaci; 0.0096 kg of active compound/ha, 7 days after treatment): 49% | Efficacy % Abbott (Bemisia tabaci; 0.0096 kg of active compound/ha, 10 days after treatment): 87% | Efficacy % Abbott (Bemisia tabaci; 0.0096 kg of active compound/ha, 14 days after treatment): 78% | Kill in % after 10 d (white fly Bemisia tabaci): 0%

N#C/N=C1\SCCN1Cc1ccc(Cl)nc1 [IIk]
Efficacy % Abbott (Bemisia tabaci; 0.096 kg of active compound/ha, 7 days after treatment): 86% | Efficacy % Abbott (Bemisia tabaci; 0.096 kg of active compound/ha, 10 days after treatment): 61% | Efficacy % Abbott (Bemisia tabaci; 0.096 kg of active compound/ha, 14 days after treatment): 68%
